Laboratory results: patent publication US9604987B2, “Synthesis of autophagy inducing compound and the uses thereof” (Hong Kong Baptist University, priority 2012, dated 2017)

Key:
N2a cells = assay: Tandem fluorescent mRFP-GFP-LC3 (Tf-LC3) autophagosome maturation in N2a cells; assay type: cell-based, mouse; settings: 25 μM, 24 hours
Excerpt: Therefore, red-only puncta indicates the normal maturation of the autolysosomes. In contrast, co-localization of GFP and RFP puncta indicates impaired fusion between autophagosomes and lysosomes or disruption of lysosome function. Here, this system is utilized and establishes a pattern of GFP and mRFP fluorescence changes in N2a cells after Cory B treatment. Cells are fixed in 4% paraformaldehyde and analyzed under a confocal microscope. […] However, the number of GFP puncta is much lower as compared to mRFP puncta, indicating efficient autophagosome-lysosome maturation and degradation. In cells treated with CQ, there is similar accumulation of GFP and mRFP puncta due to lysosome inhibition. In cells treated with both CQ and Cory B, the number of GFP and mRFP puncta are even more than in the CQ-alone group, but GFP and mRFP puncta numbers are very similar (FIG. 2E, F). The observations further confirm that enhancement of GFP- and RFP-LC3-II puncta expression by Cory B are achieved via autophagy induction flux in neuronal cells rather than inhibiting lysosomal degradation of LC3-II. Results were presented as means±SEM of one representative experiment from three independent repeats (**p<0.01 compare the difference between GFP and RFP puncta in each group, two-way ANOVA for multiple comparison and Bonferroni test as post hoc test).

[1] = tested on: L3 Drosophila larvae fat body; assay: LysoTracker Red staining of Drosophila L3 larvae fat body; assay type: in vivo
Method: Drosophila culture and drug feeding. Flies were raised at 25° C. on standard corn meal medium supplemented with dry yeast. Cory B and rapamycin were initially dissolved in DMSO then diluted in water to desired concentrations. The drug containing water was added into instant Drosophila food and mixed thoroughly. As the control, the same amount of DMSO was also mixed with instant Drosophila food. For the treatment, L3 larvae or adult flies were transferred to the drug-containing medium and incubated for indicated time.
Lysotracker staining and quantitative analysis of autophagic structures. L3 larvae were dissected using fine forceps under a dissecting microscope and inverted so that fat bodies were exposed to the incubating solution. The larvae carcasses were stained with 100 nM of LysoTracker red in PBS for 5 minutes at room temperature. After the incubation, the larvae carcasses were rinsed once in PBS and transferred to a glass slide with a drop of mounting medium on it. […] Fat body lobes were then covered with a cover slide and immediately observed under a standard fluorescence microscope. Quantitative analysis of lysotracker-positive spots was performed according to previous described protocol with minor revision. […] The numbers of lysotracker-positive spots were quantified from at least 20 randomly selected fluorescent image fields (4700 μm^2/field). […]

PC12 cells = assay: Western blot of autophagy marker LC3-II in PC12 cells; assay type: cell-based, rat; settings: PC12, 0-25 μM, 24 hours
Method: Native and denatured PAGE and Western blotting analysis. Samples to be run under denaturing conditions were lysed with RIPA lysis buffer (150 mM NaCl, 50 mM Tris-HCl, 0.35% sodium deoxycholate, 1 mM EDTA, 1% NP40, 1 mM PMSF, 5 μg/ml aprotinin, 5 μg/ml leupeptin). Samples for native gels were lysed with detergent-free lysis buffer (50 mM Tris/HCl pH 7.4, 175 mM NaCl, 5 mM EDTA pH 8.0, 1 mM PMSF, 5 μg/ml aprotinin, 5 μg/ml leupeptin), and sheared 5 times through a 28-gauge needle followed by 2 times of sonication for 5 seconds according to previously described protocol. For denaturing, SDS-PAGE was performed using Tris-Glycine SDS running buffer and SDS sample buffer, and for native conditions, native-PAGE was run with detergent-free Tris-Glycine running buffer (BN2007, Invitrogen) and 4× native sample buffer (BN2003, Invitrogen) on a pre-casted native PAGE gel (BN1002BOX, Invitrogen). The proteins on the gels were then transferred to PVDF membrane (RPN303F, GE Healthcare) and processed for immunoblotting. Membranes were blocked with 5% non-fat milk and probed with the appropriate primary and secondary antibodies. The desired bands were visualized using the ECL kit (32106, Pierce). The band density was quantified using the ImageJ program and normalized to that of the control group. […]

CC[C@@H]1CN2CC[C@]3(C(=O)Nc4ccccc43)C2C[C@@H]1C(=COC)C(=O)OC (some centres unmarked) [Cory B, Corynoxine B]
GFP and mRFP puncta formation (Tf-LC3) (N2a cells): induces massive GFP and mRFP puncta formation | number of GFP puncta compared to mRFP puncta (N2a cells): much lower | LysoTracker Red-positive puncta in fat bodies ([1]; fed 0.2 mg/ml, 6 hours): induces formation of LysoTracker Red-positive puncta | LysoTracker Red puncta formation in presence of 3-MA ([1]; with autophagy inhibitor 3-MA): blocked | LC3-II levels (PC12 cells): increases levels of LC3-II
